Source: ChEMBL document CHEMBL1759997, “Discovery of a piperazine urea based compound as a potent, selective, orally bioavailable melanocortin subtype-4 receptor partial agonist” (Bioorg Med Chem Lett, 2011)
Activity calls are given as the source filed them. The calls are words filed in the database; no cut-off is given here.

How the values were obtained:
Melanocortin receptor 4 [1] = target: T1, Melanocortin receptor 4 (Homo sapiens, UniProt P32245); assay: Agonist activity at human MC4 receptor expressed in CHO cells assessed as cAMP accumulation; format: functional, cell-based
[2] = target: T2, Melanocyte-stimulating hormone receptor (Homo sapiens, UniProt Q01726); assay: Displacement of [125I]NDP-alpha-MSH from human MC1 receptor expressed in CHO cells; format: cell-based
Target sequence in this assay (Q01726 whole entry): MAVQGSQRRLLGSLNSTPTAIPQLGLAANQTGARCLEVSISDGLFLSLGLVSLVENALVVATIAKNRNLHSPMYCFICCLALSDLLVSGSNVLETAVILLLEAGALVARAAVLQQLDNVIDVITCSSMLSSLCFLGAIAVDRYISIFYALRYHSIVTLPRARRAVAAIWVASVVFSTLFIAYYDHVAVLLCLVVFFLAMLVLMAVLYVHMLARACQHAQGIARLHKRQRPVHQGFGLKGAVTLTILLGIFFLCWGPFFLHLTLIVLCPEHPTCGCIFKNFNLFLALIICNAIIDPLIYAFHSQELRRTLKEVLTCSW

Melanocortin receptor 3 [3] = target: T3, Melanocortin receptor 3 (Homo sapiens, UniProt P41968); assay: Displacement of [125I]NDP-alpha-MSH from human MC3 receptor expressed in CHO cells; format: cell-based
Melanocortin receptor 3 [4] = target: T3, Melanocortin receptor 3; assay: Agonist activity at human MC3 receptor expressed in CHO cells assessed as cAMP accumulation at 10 uM relative to alpha-MSH; format: functional, cell-based
Melanocortin receptor 4 [5] = target: T1, Melanocortin receptor 4; assay: Agonist activity at human MC4 receptor expressed in CHO cells assessed as cAMP accumulation at 10 uM relative to alpha-MSH; format: functional, cell-based
[6] = Clearance in Sprague-Dawley rat at 1 mg/kg, iv and 4 mg/kg, po; format: ADME, organism-based; details: in vivo
Melanocortin receptor 5 [7] = target: T4, Melanocortin receptor 5 (Homo sapiens, UniProt P33032); assay: Agonist activity at human MC5 receptor expressed in CHO cells assessed as cAMP accumulation at 10 uM relative to alpha-MSH; format: functional, cell-based
Melanocortin receptor 5 [8] = target: T4, Melanocortin receptor 5; assay: Displacement of [125I]NDP-alpha-MSH from human MC5 receptor expressed in CHO cells; format: cell-based
[9] = Half life in Sprague-Dawley rat at 1 mg/kg, iv and 4 mg/kg, po; format: ADME, organism-based; details: in vivo
[10] = Volume of distribution in Sprague-Dawley rat at 1 mg/kg, iv and 4 mg/kg, po; format: ADME, organism-based; details: in vivo, read-out: Vdss
[11] = Oral bioavailability in Sprague-Dawley rat at 1 mg/kg and 4 mg/kg; format: ADME, organism-based; details: in vivo
[12] = target: T2, Melanocyte-stimulating hormone receptor; assay: Agonist activity at human MC1 receptor expressed in CHO cells assessed as cAMP accumulation; format: functional, cell-based
Target sequence in this assay (Q01726 whole entry): as above

Melanocortin receptor 4 [13] = target: T1, Melanocortin receptor 4; assay: Displacement of [125I]NDP-alpha-MSH from human MC4 receptor expressed in CHO cells; format: cell-based
[14] = target: T2, Melanocyte-stimulating hormone receptor; assay: Agonist activity at human MC1 receptor expressed in CHO cells assessed as cAMP accumulation at 10 uM relative to alpha-MSH; format: functional, cell-based
Target sequence in this assay (Q01726 whole entry, looked up): as the sequence (Q01726 whole entry) above

Melanocortin receptor 5 [15] = target: T4, Melanocortin receptor 5; assay: Agonist activity at human MC5 receptor expressed in CHO cells assessed as cAMP accumulation; format: functional, cell-based
Rhesus monkey = assay: Volume of distribution in rhesus monkey at 1 mg/kg, po; format: ADME, organism-based, Macaca mulatta; parameters: dose 1 mg/kg, route oral; details: in vivo
[16] = Half life in Beagle dog at 1 mg/kg, po; format: ADME, organism-based, Canis lupus familiaris; parameters: dose 1 mg/kg, route oral; details: in vivo
Rattus norvegicus [17] = assay: Antiobesity activity in diet-induced obesity rat model assessed as reduction in body weight at 10 mg/kg, po BID for 14 days relative to control; format: functional, organism-based; parameters: dose 10 mg/kg
[18] = Half life in rhesus monkey at 1 mg/kg, po; format: ADME, organism-based, Macaca mulatta; parameters: dose 1 mg/kg, route oral; details: in vivo
Mus musculus [19] = assay: Antiobesity activity in diet-induced obesity mouse model assessed as reduction in food intake at 20 mg/kg after 4 hrs post dosing relative to control; format: functional, organism-based; parameters: dose 20 mg/kg
Rattus norvegicus [20] = assay: Antiobesity activity in diet-induced obesity rat model assessed as reduction in body weight at 5 mg/kg, po BID for 14 days relative to control; format: functional, organism-based; parameters: dose 5 mg/kg
[21] = Plasma concentration in rat at 10 mg/kg, iv after 15 mins; format: ADME, organism-based; parameters: dose 10 mg/kg, route intravenous
Mus musculus [22] = assay: Antiobesity activity in MC3R/MC4R knockout mouse assessed as reduction in food intake at 20 mg/kg after 4 hrs post dosing relative to control; format: functional, organism-based; parameters: dose 20 mg/kg
Mus musculus [23] = assay: Increase in erectile activity in CN-stimulated mouse at 10 mg/kg, iv; format: functional, organism-based; parameters: dose 10 mg/kg
[24] = Binding affinity to calcium channel
[25] = Clearance in Beagle dog at 1 mg/kg, po; format: ADME, organism-based, Canis lupus familiaris; parameters: dose 1 mg/kg, route oral; details: in vivo
[26] = target: Voltage-gated inwardly rectifying potassium channel KCNH2 (Homo sapiens, UniProt Q12809); assay: Inhibition of human ERG
[27] = Oral bioavailability in rhesus monkey at 1 mg/kg; format: ADME, organism-based, Macaca mulatta; details: in vivo
Canis familiaris = assay: Volume of distribution in Beagle dog at 1 mg/kg, po; format: ADME, organism-based, Canis lupus familiaris; parameters: dose 1 mg/kg, route oral; details: in vivo
Rattus norvegicus [28] = assay: Antiobesity activity in diet-induced obesity rat model assessed as reduction in body weight at 20 mg/kg, po BID for 14 days relative to control; format: functional, organism-based; parameters: dose 20 mg/kg
[29] = Binding affinity to sodium channel
[30] = Oral bioavailability in Beagle dog at 1 mg/kg; format: ADME, organism-based, Canis lupus familiaris; details: in vivo
Mus musculus [31] = assay: Antiobesity activity in wild type mouse assessed as reduction in food intake at 20 mg/kg after 4 hrs post dosing relative to control; format: functional; parameters: scale not given: the % may be the effect or the level left
[32] = Clearance in rhesus monkey at 1 mg/kg, po; format: ADME, organism-based, Macaca mulatta; parameters: dose 1 mg/kg, route oral; details: in vivo
[33] = Plasma concentration in rat at 0.3 mg/kg, iv after 15 mins; format: ADME, organism-based; parameters: dose 0.3 mg/kg, route intravenous
Mus musculus [34] = assay: Increase in erectile activity in CN-stimulated mouse at 0.3 mg/kg, iv; format: functional, organism-based; parameters: dose 0.3 mg/kg

T3 sequence (P41968 whole entry): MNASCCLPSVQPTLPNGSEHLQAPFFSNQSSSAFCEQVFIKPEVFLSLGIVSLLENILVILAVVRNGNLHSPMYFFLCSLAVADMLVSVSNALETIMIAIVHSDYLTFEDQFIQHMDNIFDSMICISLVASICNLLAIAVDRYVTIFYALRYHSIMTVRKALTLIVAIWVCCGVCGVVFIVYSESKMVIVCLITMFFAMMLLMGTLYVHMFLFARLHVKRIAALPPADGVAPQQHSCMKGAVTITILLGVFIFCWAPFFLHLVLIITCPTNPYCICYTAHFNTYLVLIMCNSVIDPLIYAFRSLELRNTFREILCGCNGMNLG
T1 sequence (P32245 whole entry): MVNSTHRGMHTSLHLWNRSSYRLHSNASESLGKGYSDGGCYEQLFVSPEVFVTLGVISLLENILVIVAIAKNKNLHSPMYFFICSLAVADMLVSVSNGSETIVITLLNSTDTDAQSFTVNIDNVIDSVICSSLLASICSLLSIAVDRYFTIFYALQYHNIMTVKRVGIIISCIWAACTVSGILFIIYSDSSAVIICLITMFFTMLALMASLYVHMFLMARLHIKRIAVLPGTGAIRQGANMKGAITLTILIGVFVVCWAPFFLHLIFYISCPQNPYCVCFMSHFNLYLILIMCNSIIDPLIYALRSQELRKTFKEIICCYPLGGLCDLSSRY
T4 sequence (P33032 whole entry): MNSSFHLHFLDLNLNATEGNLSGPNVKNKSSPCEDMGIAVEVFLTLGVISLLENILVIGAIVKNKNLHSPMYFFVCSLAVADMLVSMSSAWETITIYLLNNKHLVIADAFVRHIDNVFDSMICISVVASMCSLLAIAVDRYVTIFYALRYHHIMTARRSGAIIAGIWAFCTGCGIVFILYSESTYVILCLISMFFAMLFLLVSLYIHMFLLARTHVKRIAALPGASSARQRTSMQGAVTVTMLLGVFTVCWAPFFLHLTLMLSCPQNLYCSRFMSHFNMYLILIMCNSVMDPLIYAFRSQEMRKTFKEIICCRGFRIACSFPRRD
Chain of Voltage-gated inwardly rectifying potassium channel KCNH2 (Q12809 whole entry): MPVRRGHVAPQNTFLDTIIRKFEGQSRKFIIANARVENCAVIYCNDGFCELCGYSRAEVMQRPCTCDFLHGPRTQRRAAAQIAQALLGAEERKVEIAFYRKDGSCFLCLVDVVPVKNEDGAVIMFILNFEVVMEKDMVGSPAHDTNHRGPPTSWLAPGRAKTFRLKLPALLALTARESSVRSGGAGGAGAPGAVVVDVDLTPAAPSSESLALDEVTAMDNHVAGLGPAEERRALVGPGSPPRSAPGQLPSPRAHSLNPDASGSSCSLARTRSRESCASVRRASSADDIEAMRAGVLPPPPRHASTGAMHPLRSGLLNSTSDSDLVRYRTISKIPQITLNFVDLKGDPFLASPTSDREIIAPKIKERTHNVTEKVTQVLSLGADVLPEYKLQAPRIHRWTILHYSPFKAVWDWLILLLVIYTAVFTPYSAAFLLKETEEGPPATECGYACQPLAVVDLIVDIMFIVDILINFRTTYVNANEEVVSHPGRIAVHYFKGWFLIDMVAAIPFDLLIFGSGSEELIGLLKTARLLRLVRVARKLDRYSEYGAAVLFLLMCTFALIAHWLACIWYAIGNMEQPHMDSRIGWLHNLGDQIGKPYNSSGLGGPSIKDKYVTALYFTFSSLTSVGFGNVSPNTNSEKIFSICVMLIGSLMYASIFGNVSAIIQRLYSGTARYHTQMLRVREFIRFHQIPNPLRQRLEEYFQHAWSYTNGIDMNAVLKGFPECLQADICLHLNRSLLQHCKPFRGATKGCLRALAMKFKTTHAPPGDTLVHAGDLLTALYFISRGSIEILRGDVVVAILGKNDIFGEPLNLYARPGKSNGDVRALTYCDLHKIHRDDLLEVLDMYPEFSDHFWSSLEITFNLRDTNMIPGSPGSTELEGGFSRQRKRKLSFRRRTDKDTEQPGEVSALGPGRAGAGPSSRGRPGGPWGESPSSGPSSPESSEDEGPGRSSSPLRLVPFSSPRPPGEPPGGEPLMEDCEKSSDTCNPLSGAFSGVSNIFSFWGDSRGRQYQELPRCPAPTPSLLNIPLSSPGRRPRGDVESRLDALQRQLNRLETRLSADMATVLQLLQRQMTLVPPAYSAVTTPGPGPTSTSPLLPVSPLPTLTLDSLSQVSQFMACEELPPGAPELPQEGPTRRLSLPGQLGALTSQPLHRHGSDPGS

Row | Structure (SMILES) | EC50 (Melanocortin receptor 4 [1]) | IC50 [2] | IC50 (Melanocortin receptor 3 [3]) | Activity (Melanocortin receptor 3 [4]) | Activity (Melanocortin receptor 4 [5]) | clearance [6] | Activity (Melanocortin receptor 5 [7]) | IC50 (Melanocortin receptor 5 [8]) | half-life [9] | Vd [10] | bioavailability [11] | EC50 [12] | IC50 (Melanocortin receptor 4 [13]) | Activity [14] | EC50 (Melanocortin receptor 5 [15]) | further results
1 | C[C@@H]1CN(C(=O)N[C@H](Cc2ccc(F)cc2)C(=O)N2CCC(C(=O)NC(C)(C)C)(C3CCCCC3)CC2)C[C@@H](C)N1 | 18 nM | 2100 nM | 970 nM | 2.8% | 66% | 43 mL/min/kg | 31% | 1400 nM | 4.2 h | 9.2 L/kg | 1.9% | 260 nM | 11 nM | 39% | 1000 nM | –
2 | C[C@H]1CN(C(=O)N[C@H](Cc2ccc(F)cc2)C(=O)N2CCC(C(=O)NC(C)(C)C)(C3CCCCC3)CC2)C[C@H](C)N1 | 58 nM | 3300 nM | 740 nM | 2% | 58% | – | 30% | 1400 nM | – | – | – | 250 nM | 12 nM | 46% | 1400 nM | –
3 | C[C@@H]1CN(C(=O)N[C@H](Cc2ccc(F)cc2)C(=O)N2CCC(C(=O)NC(C)(C)C)(C3CCCCC3)CC2)C[C@H](C)N1 | 22 nM | 5100 nM | 650 nM | 3.6% | 59% | 35 mL/min/kg | 22% | 850 nM | 2 h | 4.7 L/kg | 28% | – | 4.9 nM | 30% | > 3000 nM | Vdss (Rhesus monkey): 1 L/kg; half-life [16]: 5.1 h; Activity (Rattus norvegicus [17]): Active; half-life [18]: 5.3 h; Activity (Mus musculus [19]): Active; Activity (Rattus norvegicus [20]): Active; concentration at 0.25 h [21]: 4700 nM; Activity (Mus musculus [22]): inactive; Activity (Mus musculus [23]): inactive; Activity [24]: 9.6 µM; CL/F [25]: 5.4 mL/min/kg; INH [26]: > 10 µM; bioavailability [27]: 20%; Vdss (Canis familiaris): 1.8 L/kg; Activity (Rattus norvegicus [28]): Active; Activity [29]: 6.8 µM; bioavailability [30]: 118%; Activity (Mus musculus [31]): 37%; CL/F [32]: 5.2 mL/min/kg
4 | CC[C@H](NC(C)=O)c1cc(Cl)ccc1C1CCN(C(=O)[C@@H]2CN(C(C)(C)C)C[C@H]2c2ccc(F)cc2F)CC1 | – | – | – | – | – | – | – | – | – | – | – | – | – | – | – | Activity (Rattus norvegicus [17]): Active; concentration at 0.25 h [33]: 47 nM; Activity (Mus musculus [34]): Active; Activity (Mus musculus [23]): Active

More lines, main results first:

Row | EC50 (Melanocortin receptor 4 [1]) | IC50 [2] | IC50 (Melanocortin receptor 3 [3]) | Activity (Melanocortin receptor 3 [4]) | Activity (Melanocortin receptor 4 [5]) | clearance [6] | Activity (Melanocortin receptor 5 [7]) | IC50 (Melanocortin receptor 5 [8]) | half-life [9] | Vd [10] | bioavailability [11] | EC50 [12] | IC50 (Melanocortin receptor 4 [13]) | Activity [14] | EC50 (Melanocortin receptor 5 [15]) | Structure (SMILES) | further results
5 | 13 nM | 2100 nM | 230 nM | 1.2% | 41% | 36 mL/min/kg | 14% | 430 nM | 1.7 h | 4.7 L/kg | 46% | 420 nM | 4.7 nM | 24% | – | CC[C@@H]1CN(C(=O)N[C@H](Cc2ccc(F)cc2)C(=O)N2CCC(C(=O)NC(C)(C)C)(C3CCCCC3)CC2)C[C@H](CC)N1 | –
6 | – | 1500 nM | 33 nM | 1.3% | 15% | – | 26% | 54 nM | – | – | – | 280 nM | 0.78 nM | 24% | 210 nM | C[C@@H]1CN(C(=O)N[C@H](Cc2ccc(Cl)cc2)C(=O)N2CCC(C(=O)NC(C)(C)C)(C3CCCCC3)CC2)C[C@H](C)N1 | –
7 | 60 nM | 7800 nM | 760 nM | 0.6% | 21% | – | 14% | 1400 nM | – | – | – | 910 nM | 16 nM | 14% | – | C[C@@H]1CN(C(=O)N[C@H](Cc2ccc(F)cc2)C(=O)N2CCC(C(=O)NC(C)(C)C)(C3CCCCC3)CC2)C[C@H](C)N1C | –
8 | – | 2800 nM | 390 nM | 0% | 18% | 62 mL/min/kg | 1% | 1300 nM | 1.8 h | 8.2 L/kg | 18% | 400 nM | 5.1 nM | 31% | – | CC[C@@H]1CN(C(=O)N[C@H](Cc2ccc(F)cc2)C(=O)N2CCC(C(=O)NC(C)(C)C)(C3CCCCC3)CC2)C[C@@H](CC)N1 | –
